Experiments:
α-galactosidase [1] = tested on: T1, α-galactosidase; experiment: initial rate of hydrolysis, p-nitrophenol release at […] nm, Lineweaver-Burk; type: biochemical, Fusarium verticillioides; conditions: citrate phosphate buffer pH 5.0, 50 °C (standard assay); read-out: apparent Km
T1 construct: gene EC 3.2.1.22; single band 57 kDa on SDS-PAGE; optimum pH 4.0

α-galactosidase [2] = tested on: T1, α-galactosidase; experiment: initial rate of hydrolysis, Lineweaver-Burk; type: biochemical, Fusarium verticillioides; conditions: citrate phosphate buffer pH 5.0, 50 °C (standard assay); read-out: apparent Km

| SMILES | Km (α-galactosidase [1]) | Km (α-galactosidase [2]) |
| --- | --- | --- |
| O=[N+]([O-])c1ccc(O[C@H]2O[C@H](CO)[C@H](O)[C@H](O)[C@H]2O)cc1 [p-nitrophenyl-α-D-galactopyranoside] | 200 µM | – |
| OC[C@H]1O[C@H](OC[C@H]2OC(O)[C@H](O)[C@@H](O)[C@@H]2O)[C@H](O)[C@@H](O)[C@H]1O (stereo partly drawn) [melibiose] | – | 1360 µM |
| OC[C@H]1O[C@H](OC[C@H]2O[C@H](O[C@]3(CO)O[C@H](CO)[C@@H](O)[C@@H]3O)[C@H](O)[C@@H](O)[C@@H]2O)[C@H](O)[C@@H](O)[C@H]1O [raffinose] | – | 3660 µM |
